Data: publication PMC5443610 (Journal of Medicinal Chemistry, 2017)
Values after ≈ are worked out from the molar mass of the structure shown.

Key:
[1] = molecular target: T1, BRPF1 BD (Homo sapiens, UniProt P55201); assay: TR-FRET binding competition assay
T1 sequence (P55201 626-740): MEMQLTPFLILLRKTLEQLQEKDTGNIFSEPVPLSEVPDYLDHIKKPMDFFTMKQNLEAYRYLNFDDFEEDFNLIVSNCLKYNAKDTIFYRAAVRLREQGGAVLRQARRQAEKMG

[2] = molecular target: T2, BRPF3 BD (Homo sapiens, UniProt Q9ULD4); assay: TR-FRET binding competition assay
T2 sequence (Q9ULD4 592-711): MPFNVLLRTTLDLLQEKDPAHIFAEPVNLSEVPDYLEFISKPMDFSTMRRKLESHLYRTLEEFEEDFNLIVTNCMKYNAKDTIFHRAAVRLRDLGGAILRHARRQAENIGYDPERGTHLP

[3] = molecular target: T3, TAF1L BD2 (Homo sapiens, UniProt Q8IZX4); assay: biochemical; format: binding
T3 sequence (Q8IZX4 1517-1649): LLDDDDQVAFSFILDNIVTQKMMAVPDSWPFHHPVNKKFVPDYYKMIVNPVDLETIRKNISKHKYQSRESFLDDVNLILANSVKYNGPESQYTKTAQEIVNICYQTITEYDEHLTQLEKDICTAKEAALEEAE

[4] = molecular target: T4, BRPF1 (Homo sapiens, UniProt P55201); assay: AlphaScreen; format: binding
T4 sequence (P55201 628-732 limits assumed): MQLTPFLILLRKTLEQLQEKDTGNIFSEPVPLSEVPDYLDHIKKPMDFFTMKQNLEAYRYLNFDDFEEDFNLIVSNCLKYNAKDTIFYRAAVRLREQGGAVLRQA

[5] = molecular target: T5, BRPF3 (Homo sapiens, UniProt Q9ULD4); assay: AlphaScreen; format: binding
T5 sequence (Q9ULD4 589-693 limits assumed): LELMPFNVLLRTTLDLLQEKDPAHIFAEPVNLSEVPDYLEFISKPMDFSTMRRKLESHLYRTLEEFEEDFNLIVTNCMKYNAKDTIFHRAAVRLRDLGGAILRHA

[6] = molecular target: CREBBP (Homo sapiens, UniProt Q92793); assay: AlphaScreen; format: binding
CREBBP, sequence (Q92793 1081-1197): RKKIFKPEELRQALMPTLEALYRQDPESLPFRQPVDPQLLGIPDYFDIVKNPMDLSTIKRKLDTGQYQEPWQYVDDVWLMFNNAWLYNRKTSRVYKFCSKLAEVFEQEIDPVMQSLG

[7] = molecular target: CREBBP BD (Homo sapiens, UniProt Q92793); assay: Isothermal titration calorimetry; format: binding
CREBBP BD, sequence (Q92793 1081-1197): as above

[8] = molecular target: T6, BRPF1 BD/H4 (Homo sapiens, UniProt P55201); assay: NanoBRET cellular assay; format: cell-based
T6 sequence (P55201 626-732): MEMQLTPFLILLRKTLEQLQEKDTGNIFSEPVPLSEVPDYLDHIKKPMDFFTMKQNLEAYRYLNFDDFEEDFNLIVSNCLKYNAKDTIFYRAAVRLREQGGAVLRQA

[9] = tested on: panel containing over 300 kinases; assay: Kinase panel; format: biochemical; settings: 10 μM, all cases
[10] = tested on: 68 potential targets; assay: LeadProfilingScreen; settings: 10 μM compound
[11] = Metabolic stability in liver microsomes; format: in vitro ADME; settings: mouse liver microsomes
[12] = Metabolic stability in liver microsomes; format: in vitro ADME; settings: rat liver microsomes
[13] = Metabolic stability in liver microsomes; format: in vitro ADME; settings: dog liver microsomes
[14] = Metabolic stability in liver microsomes; format: in vitro ADME; settings: human liver microsomes
[15] = Metabolic stability in hepatocytes; format: in vitro ADME; settings: rat hepatocytes
[16] = Caco2 permeability assay; format: in vitro ADME; settings: human, Caco-2, pH 7.2, Caco2 Papp (B-A), 2 μM, 2 h
[17] = In vivo rat pharmacokinetics; design: species or system Wistar rat
[18] = tested on: Caco2 cells; assay: Caco2 permeability assay; format: in vitro ADME
[19] = Reversed-phase HPLC lipophilicity; format: physicochemical; settings: pH 7.5
[20] = High-throughput aqueous solubility from DMSO solution; format: physicochemical; settings: pH 6.5 buffer
[21] = molecular target: T7, BRPF2 BD/H4 (Homo sapiens, UniProt O95696); assay: NanoBRET cellular assay; format: cell-based; settings: HCT116 cells
T7 sequence (O95696 560-666): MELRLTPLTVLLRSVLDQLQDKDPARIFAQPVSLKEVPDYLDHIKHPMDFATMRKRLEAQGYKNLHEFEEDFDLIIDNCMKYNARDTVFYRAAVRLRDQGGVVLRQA

[22] = molecular target: BRD4 BDs (Homo sapiens, UniProt O60885); assay: AlphaScreen; format: binding
[23] = tested on: panel of 22 kinases; assay: Panel of 22 kinases; format: biochemical; settings: data not shown

With Cc1cc2c(cc1N1C(=O)c3cccc4c(CCCO)ccc(c34)C1=O)n(C)c(=O)n2C (racemic) [Compound 5, 6-(3-Hydroxypropyl)-2-(1,3,6-trimethyl-2-oxo-2,3-dihydro-1H-benzimidazol-5-yl)-1H-benzo[de]isoquinoline-1,3(2H)-dione] the IC50 ([1]; BRPF1 IC50, TR-FRET) was 3150 nM, the IC50 [2] was 5550 nM and the IC50 [3] was 106 nM. It also gave an IC50 [4] of 2280 nM, an IC50 [5] of 2450 nM and an IC50 [6] of 1710 nM. For the same compound, the Kd [7] was 1390 nM, the IC50 [8] was greater than 10000 nM and the “inhibition in kinase panel” value [9] was “less than 50%”. The “inhibition or stimulation in LeadProfilingScreen” value [10] was no more than 25%, the CLblood [11] was 3.17 mL/min/kg and the CLblood [12] was 2.5 mL/min/kg. It also gave a CLblood [13] of less than 0.017 mL/min/kg, an Fmax [13] of 100% and a CLblood [14] of less than 0.017 mL/min/kg. For the same compound, the Fmax [14] was 100%, the CLblood [15] was 63.3 mL/min/kg and the Papp B→A at 2 h, 2 μM [16] was 19.1 ×10⁻⁶ cm/s. The “blood clearance as share of hepatic blood flow” value [17] was “ca. 17%” and the CLblood ([17]; in vivo) was 12.2 mL/min/kg.
In the case of Cc1cc2c(cc1N1C(=O)c3cccc4c(CCCO)ccc(c34)C1=O)n(C)c(=O)n2C (single isomer, unassigned) [atropisomer 1, (−)-6-(3-Hydroxypropyl)-2-(1,3,6-trimethyl-2-oxo-2,3-dihydro-1H-benzimidazol-5-yl)-1H-benzo[de]isoquinoline-1,3(2H)-dione], the IC50 ([1]; BRPF1 IC50, TR-FRET) is reported as 5860 nM.
In the case of Cc1cc2c(cc1N1C(=O)c3cccc4c(CCCO)ccc(c34)C1=O)n(C)c(=O)n2C (single isomer, unassigned) [atropisomer 2, (+)-6-(3-Hydroxypropyl)-2-(1,3,6-trimethyl-2-oxo-2,3-dihydro-1H-benzimidazol-5-yl)-1H-benzo[de]isoquinoline-1,3(2H)-dione], the IC50 ([1]; BRPF1 IC50, TR-FRET) is reported as 5490 nM.
For Cn1c(=O)n(C)c2cc(N3C(=O)c4cccc5cccc(c45)C3=O)ccc21 [Compound 6], the IC50 ([1]; BRPF1: inactive up to concentration, TR-FRET, HTS hit dose-response) was greater than 20000 nM, the IC50 [2] was greater than 20000 nM and the “permeability profile in Caco2 cells” value [18] was “excellent permeability profile”. For the same compound, the chromatographic logD [19] was 2.1 and the solubility at 24 h [20] was 3.7 µg/mL (≈ 10.4 µM).
With Cc1cc2c(cc1N1C(=O)c3cccc4cccc(c34)C1=O)n(C)c(=O)n2C [Compound 7, 2-(1,3,6-Trimethyl-2-oxo-2,3-dihydro-1H-benzimidazol-5-yl)-1H-benzo[de]isoquinoline-1,3(2H)-dione] the IC50 [21] was 470 nM.
For Cc1cc2c(cc1N1C(=O)c3cccc4c(Cl)ccc(c34)C1=O)n(C)c(=O)n2C [Compound 13, 6-Chloro-2-(1,3,6-trimethyl-2-oxo-2,3-dihydro-1H-benzimidazol-5-yl)-1H-benzo[de]isoquinoline-1,3(2H)-dione], the “cellular activity for BRPF1” value ([8]; NanoBRET) was “no activity”.
With Cn1c(=O)[nH]c2cc(N3C(=O)c4cccc5c(CCCO)ccc(c45)C3=O)ccc21 [Compound 31, 6-(3-Hydroxypropyl)-2-(1-methyl-2-oxo-2,3-dihydro-1H-benzimidazol-5-yl)-1H-benzo[de]isoquinoline-1,3(2H)-dione] the “activity for BRPF3” value ([5]; AlphaScreen) was “no activity”, the “activity for BRD4 BDs” value [22] was “no activity” and the “no activity up to, panel of 22 kinases” value [23] was greater than 10 µM.
